One series concerns the target human EP4 receptor (Homo sapiens (Human), UniProt P35408). The experiment in a line: [3H]-Prostaglandin E2 membrane binding assay toward hEP4 receptors. Conditions: [3H]-PGE2 1 nM, membranes of human EP4/HEK293 transfectant; read-out: Binding pKi (converted). The procedure: Human embryonic kidney cells (HEK-293) were stably transfected with expression vector for human EP4 receptor in according to the method described in FuGENE®6 Transfection Reagent's manual (Roche Applied Science®). […] Incubation was conducted in a polypropylene 96 multiwell for 90 min (EP4) or 60 min (EP2) at room temperature prior to separation of the bound and free radioligand by vacuum manifold rapid filtration on glass fiber filters (Unifilter GFB96, PerkinElmer Inc) pre-soaked in 0.3% polyethyleneimine.

A short description of series [1]: Pharmacokinetics in male Han Wistar rats, intravenous and oral. The series is classed as in vivo. Conditions: male Han Wistar rat. The procedure: The pharmacokinetics of compounds E7, E17 and E18, were studied in male Han Wistar rats. The rats were treated intravenously and orally (n=3 for each dose route) with compounds formulated as solutions. The rats were fitted with a jugular cannula for serial sampling. A full profile was acquired from each rat. Plasma extracts were quantitatively analyzed using a specific and sensitive LC-MS/MS bioanalytical method. Inter-individual variations between the three rats in each group were limited (CV for pharmacokinetic parameters was below 50%).

This is an account of results in patent publication US9181279B2, “Cyclic amine derivatives as EP4 receptor antagonists” (ROTTAPHARM BIOTECH S.R.L., priority 2011, dated 2015).

Chain of human EP4 receptor (P35408 whole entry): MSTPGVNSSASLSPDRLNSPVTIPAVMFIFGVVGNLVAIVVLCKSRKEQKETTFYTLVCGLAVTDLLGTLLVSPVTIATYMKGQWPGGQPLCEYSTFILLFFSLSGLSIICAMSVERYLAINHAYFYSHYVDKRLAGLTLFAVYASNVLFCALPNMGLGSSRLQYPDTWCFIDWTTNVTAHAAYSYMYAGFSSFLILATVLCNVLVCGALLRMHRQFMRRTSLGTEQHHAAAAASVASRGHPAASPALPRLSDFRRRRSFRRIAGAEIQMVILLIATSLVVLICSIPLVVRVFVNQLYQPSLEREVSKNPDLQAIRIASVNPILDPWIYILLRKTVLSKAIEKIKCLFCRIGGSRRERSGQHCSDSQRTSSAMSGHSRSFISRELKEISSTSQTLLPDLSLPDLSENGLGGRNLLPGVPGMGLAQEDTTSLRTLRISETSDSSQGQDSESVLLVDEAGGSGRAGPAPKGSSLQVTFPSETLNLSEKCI

With `O=C(O)c1ccc(C2(NC(=O)[C@H]3CCCCN3Cc3ccc(C(F)(F)F)cc3)CC2)cc1` [Example E4, lithium (R)-4-(1-(1-(4-(trifluoromethyl)benzyl)piperidine-2-carboxamido)cyclopropyl)benzoate], the Ki at human EP4 receptor is 39.8 nM.

On to `O=C(O)c1ccc(C2(NC(=O)[C@H]3CC(F)(F)CCN3Cc3ccc(C(F)(F)F)cc3)CC2)cc1` [Example E17, (R)-4-(1-(4,4-difluoro-1-(4-(trifluoromethyl)benzyl)piperidine-2-carboxamido)cyclopropyl)benzoic acid], for which, in series [1] (po, 1 mg/kg), the F was determined as 85% and the Tlast is 24 h.

As for `C[C@H](NC(=O)[C@H]1CCCN1Cc1ccc(C(F)(F)F)cc1)c1ccc(C(=O)O)cc1` [Example E27, lithium 4-((S)-1-((R)-1-(4-(trifluoromethyl)benzyl)pyrrolidine-2-carboxamido)ethyl)benzoate], on human EP4 receptor, the Ki is 50.1 nM.

`O=C(O)c1ccc(C2(NC(=O)C3CC(F)(F)CCN3Cc3ccc(C(F)(F)F)cc3)CC2)cc1` (single isomer, unassigned) [Example E18, 4-(1-(4,4-difluoro-1-(4-(trifluoromethyl)benzyl)piperidine-2-carboxamido)cyclopropyl)benzoic acid] yielded a Tlast in series [1] (iv, 1 mg/kg) of 24 h. In series [1] (po, 1 mg/kg), the F was found to be 93% and the Tlast is on record as 24 h.

In the case of `O=C(O)c1ccc(C2(NC(=O)C3CC4(CCN3Cc3ccc(C(F)(F)F)cc3)CC4)CC2)cc1` (single isomer, unassigned) [Example E7, 4-(1-(6-(4-(trifluoromethyl)benzyl)-6-azaspiro[2.5]octane-5-carboxamido)cyclopropyl)benzoic acid], in series [1] (iv, 5 mg/kg), the “AUC 0-t” value stood at 29200 ng·h/mL, the AUC inf was found to be 31800 ng·h/mL, the CLp stood at 43 mL/h and the Tlast is given as 24 h. Moreover, in series [1] (iv, 5 mg/kg), the Vss came to 395 mL and the t½ was determined as 7.4 h. Besides, in series [1] (po, 5 mg/kg), the “AUC 0-t” value came to 22900 ng·h/mL, the AUC inf was determined as 24900 ng·h/mL, the Cmax was found to be 5330 ng/mL and the F came to 78%. In series [1] (po, 5 mg/kg), the Tlast is 24 h, the Tmax is 0.5 h and the t½ turned out to be 6.7 h.
